From publication PMC6148246, “HS-1371, a novel kinase inhibitor of RIP3-mediated necroptosis” (Experimental & Molecular Medicine, 2018)

How the values were obtained:
[1] = tested on: L929; assay: TNF plus zVAD-induced necroptosis in L929 cells; format: cell-based, mouse
Method: Cells were pretreated with DAB or HS-1371 for 2 h and then treated with TSZ (6 h for immunoblotting, 24 h for cell death assay). Cell lysates were analyzed by immunoblotting (left bottom panel), and cell viability was analyzed by MTT assay (right panel). The results are presented as means ± SEM. *P < 0.05, **P < 0.01, ***P < 0.001. c, d HS-1371 had the same effect on mouse cells. L929 (mouse sarcoma, c) and MEF (mouse embryonic fibroblast, d) cells were pretreated with inhibitors and then necroptosis was induced by TNF. Cell lysates were analyzed by immunoblotting (upper panel), and cell viability was analyzed by MTT assay (bottom panel). The results are presented as means ± SEM. *P < 0.05, **P < 0.01, ***P < 0.001

[2] = tested on: 293T cells; assay: RIP3 overexpression-induced cell death in 293T cells (PI staining); format: cell-based, human; settings: 293T transfected with Flag-RIP3, 20 h
Method: Fig. 6 Possibility of HS-1371 as a drug for necroptosis-related diseases. a, b HT-29 cells were pre- or post-treated with HS-1371 for indicated time points, and RIP3 phosphorylation (a) and cell death (b) were measured by western blotting or MTT assay. Data are presented as means ± SEM. *P < 0.05, **P < 0.01, ***P < 0.001. c HT-29 cells were treated with TSZ and then post-treated with HS-1371 for indicated time points, and then cell lysates were analyzed by immunoblotting (upper panel). Cell viability was analyzed by MTT assay. Data are presented as means ± SEM. *P < 0.05, **P < 0.01, ***P < 0.001. d Cells were treated with the same conditions as (c), and cell lysates were immunoprecipitated with anti-RIP3 antibody. […] 293T cells were transfected with Flag vector or Flag-RIP3, and 20 h after transfection, cells were stained with PI. PI-positive cells were analyzed by phase-contrast fluorescence microscopy

[3] = tested on: RAW264.7 macrophage cells; assay: LPS plus zVAD-induced cytokine expression in RAW264.7 cells (real-time PCR); format: cell-based, mouse; settings: RAW264.7, LPS + zVAD, 5 and 10 μM, pre 1 h or post 2 h
Method: Total RNA was extracted using the TRIzol reagent (Life Technologies) according to the manufacturer’s instructions. Total RNA (1 μg) from each sample was converted to cDNA using MMLV reverse transcriptase (MGmed, Seoul, Korea). Equal amounts of cDNA product were used in reverse transcription-PCR conducted using the GoTaq® Green Master Mix (Promega). Real-time PCR amplification was performed using iQ™ SYBR® Green Supermix (Bio-rad). […]
HeLa, L929, and MEF cells were pretreated with HS-1371 (5 μM) for 2 h, and treated with TNF (30 ng/mL) for indicated time points. Cell lysates were analyzed by immunoblotting. […]
(a) RAW264.7 cells were treated with LPS (1 μg/mL) for indicated time points and cell lysates were analyzed by immunoblotting.
(b) RAW264.7 cells were pretreated with zVAD (20 μM) for 1 h and then treated with LPS (1 μg/mL) for indicated time points. Cell lysates were analyzed by immunoblotting.
(c) IL-6, TNF-α, and IL-1β expression levels were determined by RT-PCR analysis. […]
(d) RAW264.7 cells were pretreated with zVAD (20 μM) and HS-1371 (5 μM) for 1 h and then treated with LPS (1 μg/mL) for 4 h. Cell lysates were analyzed by immunoblotting (left panel).
IL-1β and IL-6 expression levels were determined by real-time PCR analysis. […]
(e) IL-1β, IL-6 and TNF-α expression levels were determined by real -time PCR analysis. […]

[4] = molecular target: RIP3 (Homo sapiens, UniProt Q9Y572); assay: Radiometric kinase assay of RIP3 (Reaction Biology); format: biochemical; set-up: purchased Reaction Biology Corp (Malvern, PA, USA); settings: 10 μM ATP, 20 μM MBP substrate; read-out: IC50 against RIP3
RIP3, sequence (Q9Y572 whole entry): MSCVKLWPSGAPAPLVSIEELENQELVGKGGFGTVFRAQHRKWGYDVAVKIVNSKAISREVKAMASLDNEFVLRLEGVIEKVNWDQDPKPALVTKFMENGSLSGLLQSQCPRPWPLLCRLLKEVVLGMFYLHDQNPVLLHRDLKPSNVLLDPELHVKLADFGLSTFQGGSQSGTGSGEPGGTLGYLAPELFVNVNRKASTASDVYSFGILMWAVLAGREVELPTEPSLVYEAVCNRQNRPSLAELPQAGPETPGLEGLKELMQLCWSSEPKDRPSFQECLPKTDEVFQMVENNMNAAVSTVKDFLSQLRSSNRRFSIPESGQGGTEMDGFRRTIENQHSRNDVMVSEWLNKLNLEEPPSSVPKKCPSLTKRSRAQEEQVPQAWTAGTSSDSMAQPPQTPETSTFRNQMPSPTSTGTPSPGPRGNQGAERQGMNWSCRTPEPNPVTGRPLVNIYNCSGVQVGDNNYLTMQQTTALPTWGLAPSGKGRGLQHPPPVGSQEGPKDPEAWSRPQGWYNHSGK
Method: The inhibitory activities of all compounds toward RIP3 were measured by Reaction Biology Corp (Malvern, PA, USA) by means of radiometric kinase assays ([…]). The enzymatic activity of RIP3 was monitored using 20 μM of myelin basic protein (MBP) dissolved in freshly prepared reaction buffer (20 mM HEPES (pH 7.5), 10 mM MgCl2, 1 mM EGTA, 0.02% BRIJ-35, 0.02 mg/mL BSA, 0.1 mM Na3VO4, 2 mM DTT, 1% DMSO). Each putative RIP3 inhibitor was dissolved in 100% DMSO at specific concentrations and serially diluted with epMotion 5070 in DMSO. Human RIP3 and 20 μM of peptide substrate (MBP) were added to the reaction buffer. After delivering the candidate inhibitor dissolved in DMSO to the kinase reaction mixture using Acoustic technology (Echo550; nanoliter range), the reaction mixture was incubated for 20 min at room temperature. To initiate the enzymatic reaction, ^33P-ATP with specific activity of 10 μCi/μL was added to the reaction mixture to reach a final ATP concentration of 10 μM. Radioactivity was then monitored using the filter binding method after incubation of the reaction mixture for 2 h at room temperature. At given concentrations of inhibitor, biochemical potency was measured by the percent remaining kinase activity with respect to the vehicle (dimethyl sulfoxide) reaction. Curve fits and IC50 values were then obtained using the PRISM program (GraphPad Software). […]

## Cc1ccc(Oc2ccnc3cc(-c4cnn(C5CCNCC5)c4)ccc23)cc1 [HS-1371, 7-(1-(Piperidin-4-yl)-1H-pyrazol-4-yl)-4-(p-tolyloxy)quinoline]
[1]
  TNF plus zVAD-induced necroptosis: prevented
[2]
  cell death by RIP3 ectopic expression (PI-positive staining): completely blocked
[3]
  IL-1β, IL-6 and TNF-α expression: reduced
[4]
  IC50: 20.8 nM
